Assay results taken from patent US20240122214A1, “COMPOSITIONS, METHOD OF MAKING AND METHOD OF USE THEREOF” (EPC NATURAL PRODUCTS CO., LTD, priority 2014, published 2024).
Where two headings read alike, the source gives them in different places.

How the values were obtained:
[1] = tested on: glucose transport across the Caco-2 cell monolayer; assay: Glucose transport assay in Caco-2 trans-well model (Example 1); format: cell-based; settings: Homo sapiens, 13.5 g/L glucose apical, phloretin 100 mg/L, read-out: Glucose transport compared to untreated control [% of control]
Protocol: Caco-2 cells were seeded on 0.4 μm trans-well inserts for monolayer formation and fast differentiation. On day 5, glucose transport across the cell monolayer was performed. Therefore, cell culture medium containing 13.5 g/L glucose and 1 g/L xylitol with or without the indicated dilutions of extracts or phloretin (100 mg/L) was placed as donor solution onto the apical compartment. Samples were collected from the basolateral compartment (HEPES buffer) after 0, 0.5, 1, 1.5, and 2 hours. Glucose concentrations of the samples were measured by HPLC.
Caco-2 cells were seeded on 0.4 1.tm trans-well inserts for monolayer formation and fast differentiation (enterocyte differentiation medium). On day 5, glucose transport across the cell monolayer was performed. Therefore, cell culture medium containing 13.5 g/L glucose and 1 g/L xylitol with or without the indicated concentrations of rubusoside plant extract or phloretin was placed as donor solution onto the apical compartment. Samples were collected from the basolateral compartment (HEPES buffer) after 0, 0.5, 1, 1.5, and 2 hours. Glucose and xylitol concentrations of the samples were measured by HPLC. Cell layer integrity was confirmed by TEER measurements (Millicell ERS-2 Voltometer) at each sampling time point.

Caco-2 cell layers = assay: Caco-2 barrier integrity: TEER and xylitol passage (Example 2); format: cell-based, Human; settings: 1 g/L xylitol reference
Protocol: Caco-2 cells were seeded on 0.4 μm trans-well inserts for monolayer formation and fast differentiation. […] Therefore, cell culture medium containing 13.5 g/L glucose and 1 g/L xylitol with or without the indicated concentrations of rubusoside plant extract or phloretin was placed as donor solution onto the apical compartment. The effect on barrier integrity was analyzed by measuring TEER after 0, 0.5, 1, 1.5, 2 and 3 hours (Panels A, C and E) and by including xylitol as a reference substance for the paracellular permeability of the cell layer (Panels B, D and F). Xylitol concentrations of the samples taken were measured by HPLC. Error bars are based on the standard error of the mean (n=2).
Caco-2 (165,000 cells/insert) cells were seeded on 0.4 μm trans-well inserts for monolayer formation and fast differentiation (enterocyte differentiation medium). […] Briefly, cell culture medium containing 13.5 g/L glucose and 1 g/L xylitol with or without the indicated concentrations of rubusoside plant extract or phloretin was placed as donor solution onto the apical compartment. Samples were collected from the basolateral compartment (HEPES buffer) after 0, 0.5, 1, 1.5, 2 and 3 hours. Glucose and xylitol concentrations of the samples were measured by HPLC. Cell layer integrity was confirmed by TEER measurements (Millicell ERS-2 Voltometer) at each sampling time point.

[2] = tested on: glucose transport across the Caco-2 cell monolayer; assay: Glucose transport assay in Caco-2 trans-well model (Example 2); format: cell-based, Human; settings: 0-3 h, result in words
Protocol: Caco-2 cells were seeded on 0.4 μm trans-well inserts for monolayer formation and fast differentiation. On day 5, glucose transport across the cell monolayer was performed. […] Samples were collected from the basolateral compartment (HEPES buffer) after 0, 0.5, 1, 1.5, 2 and 3 hours. Glucose concentrations of the samples were measured by HPLC. […] Error bars are based on the standard error of the mean (n=2). *p<0.05 indicates a significant difference from the control (two-way ANOVA, Tukey's multiple comparison test).
Caco-2 (165,000 cells/insert) cells were seeded on 0.4 μm trans-well inserts for monolayer formation and fast differentiation (enterocyte differentiation medium). On day 5, glucose transport across the cell monolayer was performed. […] Samples were collected from the basolateral compartment (HEPES buffer) after 0, 0.5, 1, 1.5, 2 and 3 hours. Glucose and xylitol concentrations of the samples were measured by HPLC. Cell layer integrity was confirmed by TEER measurements (Millicell ERS-2 Voltometer) at each sampling time point.

[3] = depends on the tested concentration compared with sucrose; cited from earlier work

| Molecule | activity at 100 µg/mL ([1]; 0.5 h) [%] | activity at 100 µg/mL ([1]; 1.0 h) [%] | xylitol permeability of treated cell layers (Caco-2 cell layers) | inhibitory effect on glucose transport [2] | times sweeter than sucrose [3] |
| --- | --- | --- | --- | --- | --- |
| O=C(CCc1ccc(O)cc1)c1c(O)cc(O)cc1O [Phloretin, phloretin] | 36 | 54 | highest | strongly reduced glucose absorption | – |
| OC[C@H]1O[C@H](O[C@]2(CCl)O[C@H](CCl)[C@@H](O)[C@@H]2O)[C@H](O)[C@@H](O)[C@H]1Cl [sucralose] | – | – | – | – | about 600 times |
| thaumatin | – | – | – | – | about 2000 times |
| O=S(=O)([O-])NC1CCCCC1.[Na+] [sodium cyclamate] | – | – | – | – | about 30 times |
